In patent publication US9265253B2, “Use of macrocyclic picolinamides as fungicides” (DOW AGROSCIENCES LLC, priority 2013, dated 2016):
Read-outs that look alike come from different tables or passages of the source.

Tests used:
[1] = tested on: Mycosphaerella graminicola; Anamorph: Septoria tritici; assay: Leaf Blotch of Wheat (SEPTTR) disease control; assay type: in vivo; conditions: for pest or weed control at 100 ppm / pest or weed control at 121.5 g/ha: Zymoseptoria tritici; for pest or weed control at 121.5 g/ha: rate 121.5 g/H
Protocol: (§1) Technical grades of materials were dissolved in acetone, which were then mixed with nine volumes of water containing 110 ppm Triton X-100. The fungicide solutions were applied onto wheat seedlings using an automated booth sprayer to run-off. All sprayed plants were allowed to air dry prior to further handling. All fungicides were evaluated using the aforementioned method for their activity vs. all target diseases. Wheat leaf blotch and brown rust activity were also evaluated using track spray applications, in which case the fungicides were formulated as EC formulations, containing 0.1% Trycol 5941 in the spray solutions. Wheat plants (variety Yuma) were grown from seed in a greenhouse in 50% mineral soil/50% soil-less Metro mix until the first leaf was fully emerged, with 7-10 seedlings per pot. These plants were inoculated with an aqueous spore suspension of Septoria tritici either prior to or after fungicide treatments. After inoculation the plants were kept in 100% relative humidity (one day in a dark dew chamber followed by two to three days in a lighted dew chamber at 20° C.) to permit spores to germinate and infect the leaf. The plants were then transferred to a greenhouse set at 20° C. for disease to develop. When disease symptoms were fully expressed on the 1st leaves of untreated plants, infection levels were assessed on a scale of 0 to 100 percent disease severity. Percent disease control was calculated using the ratio of disease severity on treated plants relative to untreated plants.

[2] = tested on: Puccinia triticina; Synonym: Puccinia recondite f. Sp. Tritici; assay: Wheat Brown Rust (PUCCRT) disease control; assay type: in vivo; conditions: Puccinia triticina, topical
Protocol: as §1, with “plants. Wheat plants (variety Yuma) were grown from seed in a greenhouse in 50% mineral soil/50% soil-less Metro mix until the first leaf was fully emerged, with 7-10 seedlings per pot. These plants were inoculated with an aqueous spore suspension of Puccinia triticina either prior to or after fungicide treatments. After inoculation the plants were kept in a dark dew room at 22° C. with 100% relative humidity overnight to permit spores to germinate and infect the leaf. The plants were then transferred to a greenhouse set at 24° C. for disease to develop. Fungicide formulation, application and disease assessment followed the procedures as described in the Example A.” for “plants.”

[3] = 24 h, 1 Day Protectant, rate 100 ppm, read-out: SEPTTR 1 DP disease control
[4] = 72 h, 3 Day Curative, rate 100 ppm, read-out: SEPTTR 3 DC disease control
[5] = 24 h, 1 Day Protectant, rate 100 ppm, read-out: PUCCRT 1 DP disease control
[6] = 72 h, 3 Day Curative, rate 100 ppm, read-out: PUCCRT 3 DC disease control

Compound `COc1ccnc(C(=O)N[C@H]2CCC[C@H](CCC(C)C)[C@@H](Oc3ccccc3)[C@H](C)OC2=O)c1O` [Compound F1] has a pest or weed control at 100 ppm [1, 3] of 80 to 100%, a pest or weed control at 100 ppm [1, 4] of 80 to 100% and a pest or weed control at 100 ppm [2, 5] of 80 to 100%. The pest or weed control at 100 ppm [2, 6] was 0 to 80%.

`COc1ccnc(C(=O)N[C@H]2CCC[C@H](CCC(C)C)[C@@H](OCC(C)C)[C@H](C)OC2=O)c1O` [Compound F2] showed a pest or weed control at 100 ppm [1, 3] of 80 to 100%, a pest or weed control at 100 ppm [1, 4] of 80 to 100% and a pest or weed control at 100 ppm [2, 5] of 80 to 100%. It also gave a pest or weed control at 100 ppm [2, 6] of 0 to 80%.

`COc1ccnc(C(=O)N[C@H]2CCC[C@H](CCC(C)C)[C@@H](OCC3CC3)[C@H](C)OC2=O)c1O` [Compound F3] showed a pest or weed control at 100 ppm [1, 3] of 80 to 100%, a pest or weed control at 100 ppm [1, 4] of 80 to 100% and a pest or weed control at 100 ppm [2, 5] of 80 to 100%. It also gave a pest or weed control at 100 ppm [2, 6] of 80 to 100%.

`CCCO[C@@H]1[C@@H](CCC(C)C)CCC[C@H](NC(=O)c2nccc(OC)c2O)C(=O)O[C@H]1C` [Compound F4] was tested, and the pest or weed control at 100 ppm [1, 3] was 80 to 100%, the pest or weed control at 100 ppm [1, 4] was 80 to 100% and the pest or weed control at 100 ppm [2, 5] was 80 to 100%. It also gave a pest or weed control at 100 ppm [2, 6] of 80 to 100%.

For `COc1ccnc(C(=O)N[C@H]2CCC[C@H](CCC(C)C)[C@@H](OCCCC(F)(F)F)[C@H](C)OC2=O)c1O` [Compound F5], the pest or weed control at 100 ppm [1, 3] was 80 to 100%, the pest or weed control at 100 ppm [1, 4] was 80 to 100% and the pest or weed control at 100 ppm [2, 5] was 80 to 100%. For the same compound, the pest or weed control at 100 ppm [2, 6] was 0 to 80%.

Work on `COc1ccnc(C(=O)N[C@H]2CCC[C@H](CCC(C)C)[C@@H](OC3CCCC3)[C@H](C)OC2=O)c1O` [Compound F6] yielded a pest or weed control at 100 ppm [1, 3] of 80 to 100%, a pest or weed control at 100 ppm [1, 4] of 80 to 100% and a pest or weed control at 100 ppm [2, 5] of 80 to 100%. The pest or weed control at 100 ppm [2, 6] was 80 to 100%.

For `COc1ccnc(C(=O)N[C@H]2CCC[C@H](CCC(C)C)[C@@H](OC)[C@H](C)OC2=O)c1O` [Compound F7], the pest or weed control at 100 ppm [1, 3] was 80 to 100%, the pest or weed control at 100 ppm [1, 4] was 80 to 100% and the pest or weed control at 100 ppm [2, 5] was 80 to 100%. It also gave a pest or weed control at 100 ppm [2, 6] of 0 to 80%.

`COc1ccnc(C(=O)N[C@H]2CCC[C@H](CCC(C)C)[C@@H](OC(=O)C3CCCC3)[C@H](C)OC2=O)c1O` [Compound F8] showed a pest or weed control at 100 ppm [1, 3] of 80 to 100%, a pest or weed control at 100 ppm [1, 4] of 80 to 100% and a pest or weed control at 100 ppm [2, 5] of 80 to 100%. It also gave a pest or weed control at 100 ppm [2, 6] of 80 to 100%.

Compound `COc1ccnc(C(=O)N[C@H]2CCC[C@H](CC3CCCCC3)[C@@H](OCC3CC3)[C@H](C)OC2=O)c1O` [Compound F9, N-((3S,7R,8R,9S)-7-(cyclohexylmethyl)-8-(cyclopropylmethoxy)-9-methyl-2-oxooxonan-3-yl)-3-hydroxy-4-methoxypicolinamide] has a pest or weed control at 100 ppm [1, 3] of 80 to 100%, a pest or weed control at 100 ppm [1, 4] of 80 to 100% and a pest or weed control at 100 ppm [2, 5] of 80 to 100%. For the same compound, the pest or weed control at 100 ppm [2, 6] was 80 to 100%.

In the case of `COc1ccnc(C(=O)N[C@H]2CCC[C@H](Cc3ccc(C)cc3)[C@@H](OCCCC(F)(F)F)[C@H](C)OC2=O)c1O` [Compound F10], the “SEPTTR 3 DC disease control” value ([1]; 3 Day Curative, rate 100 ppm) is reported as “A (80-100)”, the pest or weed control at 100 ppm [1, 3] is reported as 80 to 100% and the pest or weed control at 121.5 g/ha ([1]; 24 h, 1 Day Protectant, read-out: SEPTTR 1 DP disease control) is reported as 80 to 100%. For the same compound, the pest or weed control at 121.5 g/ha ([1]; 72 h, 3 Day Curative, read-out: SEPTTR 3 DC disease control) was 80 to 100%, the pest or weed control at 100 ppm [2, 5] was 80 to 100% and the pest or weed control at 121.5 g/ha ([2]; 24 h, 1 Day Protectant, rate 121.5 g/H, read-out: PUCCRT 1 DP disease control) was 80 to 100%. The pest or weed control at 100 ppm [2, 6] was 80 to 100% and the pest or weed control at 121.5 g/ha ([2]; 72 h, 3 Day Curative, rate 121.5 g/H, read-out: PUCCRT 3 DC disease control) was 0 to 80%.

`COc1ccnc(C(=O)N[C@H]2CCC[C@H](Cc3ccc(F)cc3)[C@@H](Oc3ccccc3)[C@H](C)OC2=O)c1O` [Compound F11] gave a pest or weed control at 100 ppm [1, 3] of 80 to 100%, a pest or weed control at 100 ppm [1, 4] of 80 to 100% and a pest or weed control at 100 ppm [2, 5] of 80 to 100%. The pest or weed control at 100 ppm [2, 6] was 0 to 80%.

`C=CCO[C@@H]1[C@@H](Cc2ccc(F)cc2)CCC[C@H](NC(=O)c2nccc(OC)c2O)C(=O)O[C@H]1C` [Compound F12] was tested, and the pest or weed control at 100 ppm [1, 3] was 80 to 100%, the pest or weed control at 100 ppm [1, 4] was 80 to 100% and the pest or weed control at 100 ppm [2, 5] was 0 to 80%. It also gave a pest or weed control at 100 ppm [2, 6] of 80 to 100%.

With `COc1ccnc(C(=O)N[C@H]2CCC[C@@H]3CCO[C@H]3[C@H](C)OC2=O)c1O` [Compound F58] the pest or weed control at 100 ppm [2, 5] was 80 to 100% and the pest or weed control at 100 ppm [2, 6] was 80 to 100%.

Work on `CCOCC(=O)OCOc1c(OC)ccnc1C(=O)N[C@H]1CCC[C@@H]2CCO[C@H]2[C@H](C)OC1=O` [Compound F192] yielded a pest or weed control at 100 ppm ([2]; 24 h, Wheat Brown Rust, 1 Day Protectant, rate 100 ppm (high volume application), read-out: Disease control PUCCRT 1 DP) of 80 to 100%, a pest or weed control at 121.5 g/ha ([2]; 24 h, Wheat Brown Rust, 1 Day Protectant, rate 121.5 g/H (low volume application), read-out: Disease control PUCCRT 1 DP) of 80 to 100% and a pest or weed control at 100 ppm ([2]; 72 h, Wheat Brown Rust, 3 Day Curative, rate 100 ppm (high volume application), read-out: Disease control PUCCRT 3 DC) of 80 to 100%. The pest or weed control at 121.5 g/ha ([2]; 72 h, Wheat Brown Rust, 3 Day Curative, rate 121.5 g/H (low volume application), read-out: Disease control PUCCRT 3 DC) was 80 to 100%.
